The text below walks through data of ChEMBL document CHEMBL5143710, “Design and synthesis of unprecedented 9- and 10-membered cyclonucleosides with PRMT5 inhibitory activity” (Bioorg Med Chem, 2022).

A short description of this experiment: Inhibition of full-length (FL)-PRMT5:MEP50 enzyme complex (unknown origin) expressed in Sf21 cells assessed as reduction in methylation activity using the N-terminus of H4 histone derived substrate peptide H4R3(Me1) by PRMT5:MEP50 biochemical assay. On the set-up: species or system Homo sapiens.

As to `Nc1ncnc2c1nc1n2[C@@H]2O[C@@H]([C@@H](O)[C@H]2O)[C@@H](c2ccc(F)c(F)c2)CCN1`, the IC50 was determined as 5.7 µM.

Take `Nc1ncnc2c1nc1n2[C@@H]2O[C@@H]([C@@H](O)[C@H]2O)[C@@H](c2ccc(Cl)cc2)OCCO1`: the IC50 is 1 µM.
